From US20200062773A1, “4,4a,5,7-TETRAHYDRO-3H-FURO[3,4-b]PYRIDINYL COMPOUNDS” (Janssen Pharmaceutlca NV, priority 2016, published 2020)
Blank lines part the entries; values can stand above or below the compound they belong to.

What was measured:
BACE1 = target: T1, BACE1 (Homo sapiens, UniProt P56817); assay: BACE1 biochemical FRET based assay; settings: Method 1: recombinant BACE1 1 μg/ml, 120 min at room temperature, pH 5.0; for IC50: read-out: Biochemical FRET based assay pIC50 (converted)
T1 construct: recombinant BACE1 protein in a final concentration of 1 μg/ml
T1 sequence (P56817 46-501): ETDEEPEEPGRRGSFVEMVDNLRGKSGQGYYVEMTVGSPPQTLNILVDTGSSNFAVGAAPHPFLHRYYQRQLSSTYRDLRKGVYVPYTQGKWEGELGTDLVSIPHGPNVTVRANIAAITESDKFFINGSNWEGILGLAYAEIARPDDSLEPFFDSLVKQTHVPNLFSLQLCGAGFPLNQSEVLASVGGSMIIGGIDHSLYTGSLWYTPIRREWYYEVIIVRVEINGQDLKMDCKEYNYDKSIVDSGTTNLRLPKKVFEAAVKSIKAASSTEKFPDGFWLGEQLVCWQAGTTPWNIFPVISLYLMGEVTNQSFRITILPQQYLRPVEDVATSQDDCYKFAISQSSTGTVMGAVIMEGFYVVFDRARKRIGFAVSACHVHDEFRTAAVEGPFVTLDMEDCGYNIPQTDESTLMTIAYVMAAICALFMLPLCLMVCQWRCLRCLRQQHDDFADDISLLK
Excerpt: BACE1 Biochemical Fret Based Assay
(§1) This assay is a Fluorescence Resonance Energy Transfer Assay (FRET) based assay. The substrate for this assay is an APP derived 13 amino acids peptide that contains the ‘Swedish’ Lys-Met/Asn-Leu mutation of the amyloid precursor protein (APP) beta-site APP-cleaving enzyme cleavage site. This substrate also contains two fluorophores: (7-methoxycoumarin-4-yl) acetic acid (Mca) is a fluorescent donor with excitation wavelength at 320 nm and emission at 405 nm and 2,4-Dinitrophenyl (Dnp) is a proprietary quencher acceptor. […] Upon cleavage by BACE1, the fluorophore Mca is separated from the quenching group Dnp, restoring the full fluorescence yield of the donor. The increase in fluorescence is linearly related to the rate of proteolysis.
Briefly in a 384-well format recombinant BACE1 protein in a final concentration of 1 μg/ml is incubated for 120 minutes at room temperature with 10 μm substrate in incubation buffer (40 mM Citrate buffer pH 5.0, 0.04% PEG, 4% DMSO) in the absence or presence of compound. Next the amount of proteolysis is directly measured by fluorescence measurement at T=0 and T=120 (excitation at 320 nm and emission at 405 nm). Results are expressed in RFU (Relative Fluorescence Units), as difference between T120 and T0.
(§2) A best-fit curve is fitted by a minimum sum of squares method to the plot of % Controlmin versus compound concentration. From this an IC50 value (inhibitory concentration causing 50% inhibition of activity) can be obtained.

[1] = test system: Abeta 1-42 in cerebrospinal fluid (CSF); assay: Pharmacology in the beagle dog: beta-amyloid profile in CSF after a single dose; assay type: in vivo; settings: for % Mean decrease in Abeta 1-42 at 8 h post dosing compared to own baseline / % Mean decrease in Abeta 1-42 at 25 h post dosing compared to own baseline / % Mean decrease in Abeta 1-42 at 49 h post dosing compared to own baseline: beagle dog CSF; for EC50 Aβ42: beagle dog, CSF Abeta 1-42 after single dose
Procedure: Pharmacology in the Beagle Dog
(§3) Test compounds were tested to evaluate the effect on the beta-amyloid profile in cerebrospinal fluid (CSF) of dogs after a single dose, in combination with pharmacokinetic (PK) follow up and limited safety evaluation. For each of compound 4b, 3c, 7d, or 14, four beagle dogs (2 males, 2 females) were dosed with vehicle (1 ml/kg of an aqueous solution of 20% cyclodextrin) and 12, 8, 4 and 4 beagle dogs (2 males and 2 females per dosage group), were dosed with test compounds as follows:
(§4) CSF was taken in conscious animals directly from the lateral ventricle via a cannula which was screwed in the skull and covered with subcutaneous tissue and skin, before and at 4, 8, 25 and 49 hours after dosing. Eight hours after dosing the animals got access to their regular meal for 30 minutes. Blood was taken for PK follow up (0.5, 1, 2, 4, 8, 25 and 49 hours) and serum samples for biochemistry were taken before and at 8 and 25 h after dosing. The CSF samples were used for measurement of Abeta 1-42.

[2] = test system: Abeta 1-42 produced and secreted into the medium of human neuroblastoma SKNBE2 cells; assay: Cellular αLisa assay in SKNBE2 cells; assay type: cell-based; settings: human neuroblastoma SKNBE2 cells expressing hAPP695, 18 hours incubation; for IC50: Homo sapiens, SKNBE2, 18 h, read-out: Cellular αLisa assay in SKNBE2 cells Abeta 42 pIC50 (converted)
Procedure: Cellular αLisa Assay in SKNBE2 Cells
In two αLisa assays the levels of Abeta 1-42 produced and secreted into the medium of human neuroblastoma SKNBE2 cells are quantified. The assay is based on the human neuroblastoma SKNBE2 expressing the wild type Amyloid Precursor Protein (hAPP695). The compounds are diluted and added to these cells, incubated for 18 hours and then measurements of Abeta 1-42 are taken. Abeta 1-42 are measured by sandwich αLisa. αLisa is a sandwich assay using biotinylated antibody AbN/25 attached to streptavidin coated beads and antibody cAb42/26 conjugated acceptor beads for the detection of Abeta 1-42 respectively. In the presence of Abeta 1-42, the beads come into close proximity. The excitation of the donor beads provokes the release of singlet oxygen molecules that trigger a cascade of energy transfer in the acceptor beads, resulting in light emission. Light emission is measured after 1 hour incubation (excitation at […] and emission at 615 nm).
as §2

[3] = Limited safety evaluation in the beagle dog (observations, serum biochemistry); assay type: in vivo
Procedure: as §3
as §4, with “Blood was taken for PK follow up (0.5, 1, 2, 4, 8, 25 and 49 hours) and serum samples for biochemistry were taken before and at 8 and 25 h after dosing.” left out

BACE2 = target: T2, BACE2 (Homo sapiens, UniProt Q9Y5Z0); assay: BACE2 biochemical FRET based assay; settings: recombinant BACE2, 450 minutes at room temperature, pH 5.0; for IC50: read-out: Biochemical FRET based assay pIC50 (converted)
T2 construct: recombinant BACE2 protein in a final concentration of 0.4 μg/ml
T2 sequence (Q9Y5Z0 63-518): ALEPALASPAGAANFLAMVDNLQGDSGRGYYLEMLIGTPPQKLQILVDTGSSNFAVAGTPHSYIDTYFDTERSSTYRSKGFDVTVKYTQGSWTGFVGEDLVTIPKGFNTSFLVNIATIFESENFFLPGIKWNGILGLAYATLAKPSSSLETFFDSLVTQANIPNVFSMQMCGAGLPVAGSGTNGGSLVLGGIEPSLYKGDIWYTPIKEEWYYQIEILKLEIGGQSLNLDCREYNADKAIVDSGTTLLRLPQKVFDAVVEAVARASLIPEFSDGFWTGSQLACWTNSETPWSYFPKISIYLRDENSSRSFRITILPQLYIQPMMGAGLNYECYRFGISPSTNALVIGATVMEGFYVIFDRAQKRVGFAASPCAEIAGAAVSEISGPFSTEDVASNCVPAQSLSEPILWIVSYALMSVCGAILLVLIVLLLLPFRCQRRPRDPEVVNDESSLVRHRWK
Excerpt: BACE2 Biochemical FRET Based Assay
as §1, with “assay” for “assay is an APP derived 13 amino acids peptide that”, “the beta-site APP-cleaving enzyme,” for “BACE1,”
Briefly in a 384-well format recombinant BACE2 protein in a final concentration of 0.4 μg/ml is incubated for 450 minutes at room temperature with 10 μM substrate in incubation buffer (50 mM Citrate buffer pH 5.0, 0.05% PEG, no DMSO) in the absence or presence of compound. Next the amount of proteolysis is directly measured by fluorescence measurement at T=0 and T=450 (excitation at 320 nm and emission at 405 nm). Results are expressed in RFU (Relative Fluorescence Units), as difference between T450 and T0.
as §2

Biochemical FRET based assay pIC50 (BACE1): 9.06
EC50 Aβ42 [1]: 0.019 µg/mL
Cellular αLisa assay in SKNBE2 cells Abeta 42 pIC50 [2]: 8.52
Biochemical FRET based assay pIC50 (BACE2): 7.97
SMILES: C[C@@]1(C#N)C[C@@H]2[C@@H](C(F)(F)F)OC[C@]2(c2cc(NC(=O)c3ccc(C#N)cn3)ccc2F)N=C1N [3c]
% Mean decrease in Abeta 1-42 at 8 h post dosing compared to own baseline ([1]; single dose 0.08 mg/kg): 29%
% Mean decrease in Abeta 1-42 at 25 h post dosing compared to own baseline ([1]; single dose 0.08 mg/kg): 27%
% Mean decrease in Abeta 1-42 at 49 h post dosing compared to own baseline ([1]; single dose 0.08 mg/kg): NR (NR means % decrease < 20)
% Mean decrease in Abeta 1-42 at 8 h post dosing compared to own baseline ([1]; single dose 0.31 mg/kg): 64%
% Mean decrease in Abeta 1-42 at 25 h post dosing compared to own baseline ([1]; single dose 0.31 mg/kg): 62%
% Mean decrease in Abeta 1-42 at 49 h post dosing compared to own baseline ([1]; single dose 0.31 mg/kg): 50%
Observations ([3]; one female dog dosed at 0.08 mg/kg, single dose, 8 h post dosing): moderate diarrhea

Biochemical FRET based assay pIC50 (BACE1): 8.73
EC50 Aβ42 [1]: 0.024 µg/mL
Cellular αLisa assay in SKNBE2 cells Abeta 42 pIC50 [2]: 8.9
Biochemical FRET based assay pIC50 (BACE2): 7.84
SMILES: C[C@H]1OC[C@]2(c3cc(NC(=O)c4ccc(C#N)cn4)ccc3F)N=C(N)[C@](C)(C#N)C[C@H]12 [4b]
% Mean decrease in Abeta 1-42 at 8 h post dosing compared to own baseline ([1]; single dose 0.16 mg/kg): 42%
% Mean decrease in Abeta 1-42 at 25 h post dosing compared to own baseline ([1]; single dose 0.16 mg/kg): 21%
% Mean decrease in Abeta 1-42 at 49 h post dosing compared to own baseline ([1]; single dose 0.16 mg/kg): NR (NR means % decrease < 20)
% Mean decrease in Abeta 1-42 at 8 h post dosing compared to own baseline ([1]; single dose 0.31 mg/kg): 54%
% Mean decrease in Abeta 1-42 at 25 h post dosing compared to own baseline ([1]; single dose 0.31 mg/kg): 53%
% Mean decrease in Abeta 1-42 at 49 h post dosing compared to own baseline ([1]; single dose 0.31 mg/kg): NR (NR means % decrease < 20)
% Mean decrease in Abeta 1-42 at 8 h post dosing compared to own baseline ([1]; single dose 1.25 mg/kg): 80%
% Mean decrease in Abeta 1-42 at 25 h post dosing compared to own baseline ([1]; single dose 1.25 mg/kg): 71%
% Mean decrease in Abeta 1-42 at 49 h post dosing compared to own baseline ([1]; single dose 1.25 mg/kg): 34%
Observations ([3]; one female dog dosed at 1.25 mg/kg, single dose, 8 h post dosing): slight diarrhea

Biochemical FRET based assay pIC50 (BACE1): 8.79
Cellular αLisa assay in SKNBE2 cells Abeta 42 pIC50 [2]: 8.02
Biochemical FRET based assay pIC50 (BACE2): 7.25
SMILES: C[C@@]1(C#N)C[C@@H]2[C@@H](C(F)(F)F)OC[C@]2(c2cc(NC(=O)c3cnc(OCF)cn3)ccc2F)N=C1N [7d]
% Mean decrease in Abeta 1-42 at 8 h post dosing compared to own baseline ([1]; single dose 0.31 mg/kg): 42%
% Mean decrease in Abeta 1-42 at 25 h post dosing compared to own baseline ([1]; single dose 0.31 mg/kg): NR (NR means % decrease < 20)
ALT liver enzyme increase ([3]; one female dog, 0.31 mg/kg single dose): 6 fold
Observations ([3]; one female dog, 0.31 mg/kg single dose, 49 h post dosing): slight tremors and head shaking

Biochemical FRET based assay pIC50 (BACE1): 7.95
Cellular αLisa assay in SKNBE2 cells Abeta 42 pIC50 [2]: 8.13
Biochemical FRET based assay pIC50 (BACE2): 7.26
SMILES: Cl.NC1=N[C@@]2(c3cc(NC(=O)c4ccc(F)cn4)ccc3F)CO[C@H](C(F)(F)F)[C@H]2CC1 [12c]

IC50 (BACE1): 4.9 nM
IC50 [2]: 16.6 nM
IC50 (BACE2): 363 nM
SMILES: CC(F)(F)[C@H]1OC[C@]2(c3cc(NC(=O)c4cnc(-n5cncn5)cn4)ccc3F)N=C(N)[C@](C)(C#N)C[C@H]12 [16a]

IC50 (BACE1): 1.58 nM
IC50 [2]: 2.14 nM
IC50 (BACE2): 21.4 nM
SMILES: CC(F)(F)[C@H]1OC[C@]2(c3cc(NC(=O)c4ccc(C#N)cn4)ccc3F)N=C(N)[C@](C)(C#N)C[C@H]12 [17a]

IC50 (BACE1): 24.5 nM
IC50 [2]: 138 nM
IC50 (BACE2): 1200 nM
SMILES: COc1cc(C(=O)Nc2ccc(F)c([C@]34CO[C@H](C(C)(F)F)[C@H]3C[C@@](C)(C#N)C(N)=N4)c2)ncn1 [18a]

IC50 (BACE1): 10.5 nM
IC50 [2]: 19.5 nM
IC50 (BACE2): 708 nM
SMILES: CC(C)(F)[C@H]1OC[C@]2(c3cc(NC(=O)c4ccc(C#N)cn4)ccc3F)N=C(N)[C@@](C)(C#N)C[C@H]12 [21b]

IC50 (BACE1): 4.79 nM
IC50 [2]: 13.2 nM
IC50 (BACE2): 74.1 nM
SMILES: C[C@@]1(C#N)C[C@@H]2[C@@H](CF)OC[C@]2(c2cc(NC(=O)c3cnc(OCF)cn3)ccc2F)N=C1N [22a]

IC50 (BACE1): 12.3 nM
IC50 [2]: 25.7 nM
IC50 (BACE2): 355 nM
SMILES: C[C@@]1(C#N)C[C@@H]2[C@@H](CF)OC[C@]2(c2cc(NC(=O)c3cnc(-n4cncn4)cn3)ccc2F)N=C1N [23a]

IC50 (BACE1): 14.5 nM
IC50 [2]: 31.6 nM
IC50 (BACE2): 158 nM
SMILES: C[C@]1(C#N)C[C@@H]2[C@@H](CF)OC[C@]2(c2cc(NC(=O)c3ccc(C#N)cn3)ccc2F)N=C1N [24b]

IC50 (BACE1): 9.77 nM
IC50 [2]: 31.6 nM
IC50 (BACE2): 105 nM
SMILES: C[C@@]1(C#N)C[C@@H]2[C@@H](C(F)F)OC[C@]2(c2cc(NC(=O)c3cnc(-n4cncn4)cn3)ccc2F)N=C1N [26a]

IC50 (BACE1): 2.82 nM
IC50 [2]: 6.31 nM
IC50 (BACE2): 36.3 nM
SMILES: C[C@@]1(C#N)C[C@@H]2[C@@H](C(F)F)OC[C@]2(c2cc(NC(=O)c3ccc(C#N)cn3)ccc2F)N=C1N [27a]

IC50 (BACE1): 6.76 nM
IC50 [2]: 10 nM
IC50 (BACE2): 85.1 nM
SMILES: CC1OCC2(c3cc(NC(=O)c4ccc(OC(F)F)cn4)ccc3F)N=C(N)C(C)(C#N)CC12 (centres unmarked) [compound 35]
